Source: patent US12103952B2, “Methods for expressing proteins in axons” (Cornell University, priority 2010, dated 2024)

System: CREB reporter mRNA translation in DRG axons
Experiment: myr-dEGFP3′CREB Sindbis translation reporter in axons
Type: cell-based, rat
Conditions: factor restored after NGF-free media
Description: FIGS. 5A-C are results showing NGF-dependent translation of a CREB reporter mRNA in axons. (A) Schematic diagram of the Sindbis viral reporter construct used to monitor CREB translation. The reporter contains a myristoylated, destabilized EGFP (myr-dEGFP) with the 3′UTR of CREB, expressed under control of the Sindbis subgenomic promoter (PSG). (B) E15 DRG explant cultures were infected with Sindbis constructs expressing myr-dEGFP3′CREB on DIV3 and fluorescence (bottom panel) and phase (top panel) images, approximately 1000 μm from the cell body were collected after 24 hours. Fluorescence images are shown in inverted contrast in order to more readily visualize puncta. Scale bar, 25 μm. […] EGFP fluorescence co-localizes with a population of S6-labeled ribosomal clusters. […]
FIGS. 6A-H are data showing that axonal CREB is specifically translated in response to NGF. […] (B) E15 DRG explant cultures were infected with Sindbis constructs expressing myr-dEGFP3′RhoA or myr-dEGFP3′H1f0 on DIV3 and fluorescence images were collected after 24 h. […] (D) Axons from DIV3 DRGs were analyzed for CREB and mitochondrial localizations by immunofluorescence using CREB-specific and VDAC/porin1-specific antibodies. […] CREB mRNA was detected by FISH using a CREB specific riboprobe. […] (H) Axons of DIV3 DRG explant cultures were analyzed by immunofluorescence for NGF effectors CREB, pTrkA and pErk5 at 3 DIV. […]

Substance: NGF: nerve growth factor
- fluorescent myr-dEGFP3′CREB puncta: reappeared following restoration of NGF
